In US20230390192A1, “GASTRO RETENTIVE DOSAGE FORMS COMPRISING DEUTETRABENAZINE” (AUSPEX PHARMACEUTICALS, INC., priority 2020, published 2023):

Assays:
[1] = Particle size distribution by laser diffractometry (Mastersizer 3000); format: physicochemical; conditions: drug substance, dry measurement
Description: As used herein, the term “particle size distribution” refers to the statistical distribution of the volume share related of all particle sizes and is represented by D90, D50 or D10 values. The D90 value of the integral volume distribution is defined in the context of this invention as the particle diameter, at which 90 percent by volume of the particles have a smaller diameter than the diameter, which corresponds to the D90 value. For example, a D90 of 15 μm, means that 90% (by volume) of the particles have a diameter less than or equal to 15 μm. A D50 of 10 μm, means that 50% (by volume) of the particles have a diameter less than or equal to 10 μm. A D10 of 3 μm, means that 10% (by volume) of the particles have a diameter less than or equal to 3 μm. Particle size distribution is determined by means of laser diffractometry. More specifically, the particle size distribution is determined using a Mastersizer 3000 from Malvern Instruments.
The deutetrabenazine particle size distributions following manufacture (untreated), milling (quadro co-mill) and micronization (air jet mill) are shown in Table 1.
For dry measurement of the milled and unmilled deutetrabenazine the following settings are preferably used: […]

[2] = Rat perfusion model, intestinal permeability/absorption
[3] = Drug solubility at different pH
[4] = Single-dose partial crossover comparative bioavailability study in dogs
Description: The trial was conducted as an open-label, randomized, single-dose, partial crossover comparative bioavailability study. The study was designed to determine the AUC0-t, AUC0-24, Cmax and Tmax of deutetrabenazine and total deuterated α- and β-dihydrotetrabenazine (deuHTBZ) metabolites. The sample group consisted of 4 male beagle dogs. Each dog was administered two treatments. […] A washout period of 14 days was kept before crossing over to the next treatment. Each dog was administered a single oral dose with 10 ml water. Prior to each dose administration, the dogs were pretreated with pentagastrin (to stimulate gastric acid secretion.
Blood samples were collected before dosing and at predetermined time points through 24 hours post-dosing. The samples were analyzed for deutetrabenazine and total deuHTBZ in plasma using an LC-MS/MS method.

[5] = Deutetrabenazine/deuHTBZ Cmax ratio in humans; format: in vivo
[6] = in vivo; cited from earlier work
[7] = Human [14C]-AME study; conditions: humans, dosed as powder in capsule (PIC)

Row | Structure (SMILES) | D10 [1] [μm] | D50 [1] [μm] | D90 [1] [μm] | permeability through the small intestinal (SI) segments ([2]; rat perfusion model) | levels of absorption in the lower GI (rank order of segments) ([2]; rats) | ileum absorption ([2]; rats, lower GI) | solubility ([3]; acidic environment (pH<4)) | solubility ([3]; pH ≥4) [µg/mL] | deutetrabenazine/deuHTBZ Cmax ratio [4] | deutetrabenazine/deuHTBZ Cmax ratio [5] [%] | half-life of active metabolites relative to tetrabenazine [6] | radioactive dose recovered in urine [7]
1 | [2H]C([2H])([2H])Oc1cc2c(cc1OC([2H])([2H])[2H])C1CC(=O)C(CC(C)C)CN1CC2 (stereo not drawn) [co-milled, deutetrabenazine] | 6.11 | 33.55 | 131.55 | – | – | – | – | – | – | – | – | –
2 | [2H]C([2H])([2H])Oc1cc2c(cc1OC([2H])([2H])[2H])C1CC(=O)C(CC(C)C)CN1CC2 (stereo not drawn) [unmilled, deutetrabenazine] | 9.08 | 59.66 | 213.07 | – | – | – | – | – | – | – | – | –
3 | [2H]C([2H])([2H])Oc1cc2c(cc1OC([2H])([2H])[2H])C1CC(=O)C(CC(C)C)CN1CC2 (stereo not drawn) [micro-milled, deutetrabenazine] | 1.08 | 3.31 | 7.05 | – | – | – | – | – | – | – | – | –
4 | [2H]C([2H])([2H])Oc1cc2c(cc1OC([2H])([2H])[2H])[C@H]1CC(=O)[C@H](CC(C)C)CN1CC2 [Deutetrabenazine, (RR,SS)-1,3,4,6,7,11b-hexahydro-9,10-di(methoxy-D3)-3-(2-methylpropyl)-2H-benzo[a]quinolizin-2-one] | – | – | – | permeable | Jejunum<Mid-small intestine<Colon<Ileum | about 0.0006 cm/sec | relatively good solubility | < 2300 | about 10% | < 1 | increased | approximately 80%
